Values quoted from earlier work in US20170000414A1, “Use of Blood Flow Parameters to Monitor or Control the Dosing of Anti-Platelet Agents” (RHEOVECTOR, LLC, priority 2014, published 2017).

Legend:
[1] = aspirin 81 mg; healthy individuals
[2] = 18,624 patients having prior acute coronary syndrome

CC(=O)Oc1ccccc1C(=O)O [Aspirin, acetylsalicylic acid]
effect on blood viscosity [1]: no significant effect

CCCSc1nc(N[C@@H]2C[C@H]2c2ccc(F)c(F)c2)c2nnn([C@@H]3C[C@H](OCCO)[C@@H](O)[C@H]3O)c2n1 [Ticagrelor]
rate of cardiovascular disease (CVD) events and death compared with clopidogrel [2]: reduce significantly

COC(=O)[C@H](c1ccccc1Cl)N1CCc2sccc2C1 [clopidogrel]
reducing CVD events or death, compared with aspirin 325 mg (clopidogrel 75 mg, 19,185 patients with atherosclerosis (symptomatic PAD, recent ischemic stroke or MI)): more effective | relative risk reduction (group entering the trial with symptomatic PAD, p=0.0028): 23.8% | reduction in MI, stroke or cardiovascular death rates (patients who entered the trial with an ischemic stroke or MI): no reduction
